The assay addresses T1, glucocerebrosidase (Gcase) (Homo sapiens, UniProt P04062).
T1 construct: micellar solution containing 10 nM GCase and 100 nM saposin C
T1 sequence (P04062 40-536): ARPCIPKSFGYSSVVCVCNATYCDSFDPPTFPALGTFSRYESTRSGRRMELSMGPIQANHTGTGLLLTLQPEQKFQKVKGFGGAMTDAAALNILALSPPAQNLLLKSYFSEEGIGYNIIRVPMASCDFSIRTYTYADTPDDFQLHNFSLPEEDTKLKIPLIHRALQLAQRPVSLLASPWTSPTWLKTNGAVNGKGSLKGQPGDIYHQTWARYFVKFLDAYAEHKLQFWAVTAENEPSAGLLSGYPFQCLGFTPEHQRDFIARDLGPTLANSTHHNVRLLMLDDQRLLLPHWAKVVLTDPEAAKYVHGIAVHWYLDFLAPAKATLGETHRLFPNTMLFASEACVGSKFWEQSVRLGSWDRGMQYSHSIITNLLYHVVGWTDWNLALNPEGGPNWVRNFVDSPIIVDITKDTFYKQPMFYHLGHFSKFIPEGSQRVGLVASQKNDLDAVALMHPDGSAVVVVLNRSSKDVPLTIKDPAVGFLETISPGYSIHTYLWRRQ
As to the kind of experiment: Glucocerebrosidase (Gcase) activation assay, 4-methylumbelliferyl-beta-D-glucopyranoside substrate, with saposin C. The class given is biochemical. Conditions: 0.25 h; for activation at 0.1 µM: read-out: Percent Gcase Activation 0.1 μM Test Compound; for activation at 1 µM: read-out: Percent Gcase Activation 1 μM Test Compound. The method, then: The ability of exemplary compounds to activate glucocerebrosidase (Gcase) was measured.
A 484 μL aliquot of a 1.0 mg/mL solution of phosphatidylserine (PS) (Sigma P7769) in chloroform was evaporated under a stream of nitrogen for 1 hour. The lipid film was dissolved over 4 minutes of vigorous vortexing in 40 mL of 176 mM K2HPO4/50 mM citric acid (pH 4.7) containing 7.5 μL of triton X-100, resulting in a mixed micellar preparation with a composition of 0.32 mM triton and 0.37 mol % PS. 4-Methylumbelliferyl-beta-D-glucopyranoside (ACROS-337025000) was dissolved in the micellar solution to a final concentration of 2 mM for use as the reaction substrate.
Test compounds were diluted to the desired concentrations with dimethylsulfoxide (DMSO) from 10 mM stocks, and 0.41 μL of the DMSO compound mixture was added to 100 μL of micellar solution containing 10 nM GCase and 100 nM saposin C (Enzo ALX-201-262-C050). Pre-incubation was allowed to occur for 30 minutes at room temperature, after which the reaction was initiated by combining 25 μL of substrate solution with 25 μL of compound/GCase/saposin mixture. The reaction proceeded for 15 minutes at room temperature and was stopped by adding 150 μL of 1M glycine, pH 12.5. The endpoint of the reaction was monitored by measuring fluorescence intensity (excitation: 365 nm; emission: 440 nm) on a SpectraMax i3 instrument (Molecular Devices). Test compounds were screened at 1.0 and 0.1 μM final concentration, and subsequent 8-point dose response curves were obtained using 3-fold dilutions from a maximum final concentration of 5 μM.
The symbol “+” indicates less than 5% Gcase activation; the symbol “++” indicates Gcase activation in the range of 5% up to 20%; and the symbol “+++” indicates Gcase activation greater than 20%.

`Cc1cc(-c2ccc3ocnc3c2)nn2c(C(=O)N[C@H](C3CC3)C(F)(F)F)cnc12`: the activation at 0.1 µM was above 20% and the activation at 1 µM was above 20%.

With `Cc1cc(-c2ccc3ocnc3c2)nn2c(C(=O)N[C@@H](C3CC3)C(F)(F)F)cnc12`, the activation at 0.1 µM was above 20% and the activation at 1 µM is above 20%.

Turning to `Cc1cc(-c2ccc(F)cc2C#N)nn2c(C(=O)N[C@H](C)C(F)(F)F)cnc12`, the activation at 0.1 µM is below 5% and the activation at 1 µM is 5 to 20%.

`Cc1cc(-c2ccc(F)cc2C#N)nn2c(C(=O)N[C@@H](C)C(F)(F)F)cnc12`: the activation at 0.1 µM lay within 5 to 20% and the activation at 1 µM was above 20%.

Consider `Cc1cc(-c2ccc(F)cc2C#N)nn2c(C(=O)N[C@H](C)C3CC3)cnc12`, for which the activation at 0.1 µM was below 5% and the activation at 1 µM was above 20%.

In the case of `Cc1cc(-c2ccc(C#N)o2)nn2c(C(=O)N[C@H](C3CC3)C(F)(F)F)cnc12`, the activation at 0.1 µM was above 20% and the activation at 1 µM was above 20%.

For `Cc1cc(-c2ccc(C#N)o2)nn2c(C(=O)N[C@@H](C3CC3)C(F)(F)F)cnc12`, the activation at 0.1 µM is above 20% and the activation at 1 µM is above 20%.

`Cc1cc(-c2sccc2C#N)nn2c(C(=O)N[C@H](C3CC3)C(F)(F)F)cnc12`: the activation at 0.1 µM was above 20% and the activation at 1 µM was above 20%.

Regarding `Cc1cc(-c2sccc2C#N)nn2c(C(=O)N[C@@H](C3CC3)C(F)(F)F)cnc12`, the activation at 0.1 µM is above 20% and the activation at 1 µM is above 20%.

Take `Cc1cc(N2CCN(C(C)C)C2=O)nn2c(C(=O)NC(C3CC3)C(F)(F)F)cnc12` (stereo not shown): the activation at 0.1 µM lay within 5 to 20% and the activation at 1 µM was above 20%.

In the case of `Cc1cc(-c2ccon2)nn2c(C(=O)NC(C3CC3)C(F)(F)F)cnc12` (stereo not shown), the activation at 0.1 µM fell in the range of 5 to 20% and the activation at 1 µM was above 20%.

Turning to `Cc1cc(-c2cccc(Cl)n2)nn2c(C(=O)NC(C)C(F)(F)F)cnc12` (stereo not shown), the activation at 0.1 µM was 5 to 20% and the activation at 1 µM was above 20%.

With `Cc1cc(-c2cc(C)c3ncc(C(=O)N[C@H](C4CC4)C(F)(F)F)n3n2)sn1`, the activation at 0.1 µM is above 20% and the activation at 1 µM is above 20%.

As for `Cc1cc(-c2cc(C)c3ncc(C(=O)N[C@@H](C4CC4)C(F)(F)F)n3n2)sn1`, the activation at 0.1 µM lay in the range of 5 to 20% and the activation at 1 µM was above 20%.

`Cc1cc(-c2cccnc2F)nn2c(C(=O)NC(C3CC3)C(F)(F)F)cnc12` (stereo not shown): the activation at 0.1 µM was 5 to 20% and the activation at 1 µM is above 20%.

Take `Cc1cc(-c2cncc(Cl)c2)nn2c(C(=O)N[C@H](C3CC3)C(F)(F)F)cnc12`: the activation at 0.1 µM is above 20% and the activation at 1 µM is above 20%.

As to `Cc1cc(-c2cncc(Cl)c2)nn2c(C(=O)N[C@@H](C3CC3)C(F)(F)F)cnc12`, the activation at 0.1 µM is above 20% and the activation at 1 µM is above 20%.

Turning to `Cc1cc(-c2cncc(F)c2)nn2c(C(=O)NC(C3CC3)C(F)(F)F)cnc12` (stereo not shown), the activation at 0.1 µM was 5 to 20% and the activation at 1 µM is above 20%.

With `Cc1nc2cc(-c3cc(C)c4ncc(C(=O)NC(C)C(F)(F)F)n4n3)ccc2o1` (stereo not shown), the activation at 0.1 µM lay in the range of 5 to 20% and the activation at 1 µM was above 20%.

In the case of `Cc1cc(N2CCCC(F)(F)C2)nn2c(C(=O)N[C@H](C3CC3)C(F)(F)F)cnc12`, the activation at 0.1 µM is above 20% and the activation at 1 µM was above 20%.

On to `Cc1cc(N2CCCC(F)(F)C2)nn2c(C(=O)N[C@@H](C3CC3)C(F)(F)F)cnc12`, for which the activation at 0.1 µM was above 20% and the activation at 1 µM was above 20%.

As for `Cc1cc(-c2ccccc2C#N)nn2c(C(=O)NC(C3CC3)C(F)(F)F)cnc12` (stereo not shown), the activation at 0.1 µM was 5 to 20% and the activation at 1 µM is above 20%.

For `Cc1cc(-c2ccc(F)o2)nn2c(C(=O)NC(C3CC3)C(F)(F)F)cnc12` (stereo not shown), the activation at 0.1 µM was above 20% and the activation at 1 µM is above 20%.

With `Cc1cc(C#N)c(-c2cc(C)c3ncc(C(=O)N[C@H](C)C(F)(F)F)n3n2)o1`, the activation at 0.1 µM was 5 to 20% and the activation at 1 µM is above 20%.

For `Cc1cc(C#N)c(-c2cc(C)c3ncc(C(=O)N[C@@H](C)C(F)(F)F)n3n2)o1`, the activation at 0.1 µM was above 20% and the activation at 1 µM is above 20%.

As to `Cc1cc(-c2ccc3c(c2)ncn3C)nn2c(C(=O)N[C@H](C3CC3)C(F)(F)F)cnc12`, the activation at 0.1 µM was 5 to 20% and the activation at 1 µM is above 20%.

As for `Cc1cc(-c2ccc3c(c2)ncn3C)nn2c(C(=O)N[C@@H](C3CC3)C(F)(F)F)cnc12`, the activation at 0.1 µM was in the range of 5 to 20% and the activation at 1 µM was above 20%.

Regarding `Cc1cncc(-c2cc(C)c3ncc(C(=O)N[C@H](C4CC4)C(F)(F)F)n3n2)c1`, the activation at 0.1 µM lay in the range of 5 to 20% and the activation at 1 µM was above 20%.

In the case of `Cc1cncc(-c2cc(C)c3ncc(C(=O)N[C@@H](C4CC4)C(F)(F)F)n3n2)c1`, the activation at 0.1 µM is below 5% and the activation at 1 µM was above 20%.

`COc1cncc(-c2cc(C)c3ncc(C(=O)N[C@H](C4CC4)C(F)(F)F)n3n2)c1`: the activation at 0.1 µM is 5 to 20% and the activation at 1 µM is above 20%.

On to `COc1cncc(-c2cc(C)c3ncc(C(=O)N[C@@H](C4CC4)C(F)(F)F)n3n2)c1`, for which the activation at 0.1 µM was 5 to 20% and the activation at 1 µM was above 20%.

With `C#CC(NC(=O)c1ncc2c(C)cc(-c3cccc(F)c3)nn12)C(F)(F)F` (stereo not shown) [2-(3-Fluorophenyl)-4-methyl-N-(1,1,1-trifluorobut-3-yn-2-yl)imidazo[1,5-b]pyridazine-7-carboxamide], the activation at 0.1 µM was above 20% and the activation at 1 µM is above 20%.

Take `Cc1cc(C)c2occ(C(=O)NC3CCCc4ccccc43)c2n1` (stereo not shown) [5,7-Dimethyl-N-(1,2,3,4-tetrahydronaphthalen-1-yl)furo[3,2-b]pyridine-3-carboxamide]: the activation at 0.1 µM was above 20% and the activation at 1 µM is above 20%.

As for `Cc1cc(C)c2snc(C(=O)NC3CCCc4ccccc43)c2n1` (stereo not shown) [5,7-Dimethyl-N-(1,2,3,4-tetrahydronaphthalen-1-yl)isothiazolo[4,5-b]pyridine-3-carboxamide], the activation at 0.1 µM is above 20% and the activation at 1 µM is above 20%.

Take `Cc1cc(C)c2onc(C(=O)NC3CCCc4ccccc43)c2n1` (stereo not shown) [5,7-Dimethyl-N-(1,2,3,4-tetrahydronaphthalen-1-yl)isoxazolo[4,5-b]pyridine-3-carboxamide]: the activation at 0.1 µM lay in the range of 5 to 20% and the activation at 1 µM was above 20%.

`CCC(NC(=O)c1coc2c(C)cc(C)nc12)c1ccccc1` (stereo not shown) [5,7-Dimethyl-N-(1-phenylpropyl)furo[3,2-b]pyridine-3-carboxamide]: the activation at 0.1 µM is above 20% and the activation at 1 µM is above 20%.

Consider `CCC(NC(=O)c1nsc2c(C)cc(C)nc12)c1ccccc1` (stereo not shown) [5,7-Dimethyl-N-(1-phenylpropyl)isothiazolo[4,5-b]pyridine-3-carboxamide], for which the activation at 0.1 µM was in the range of 5 to 20% and the activation at 1 µM was above 20%.

Regarding `CCC(NC(=O)c1noc2c(C)cc(C)nc12)c1ccccc1` (stereo not shown) [5,7-Dimethyl-N-(1-phenylpropyl)isoxazolo[4,5-b]pyridine-3-carboxamide], the activation at 0.1 µM was 5 to 20% and the activation at 1 µM was above 20%.

As for `CCCCCO[C@H]1CC[C@H](NC(=O)c2coc3c(C)cc(C)nc23)CC1` [5,7-Dimethyl-N-((1R,4R)-4-(pentyloxy)cyclohexyl)furo[3,2-b]pyridine-3-carboxamide], the activation at 0.1 µM lay within 5 to 20% and the activation at 1 µM was above 20%.

For `CCCCCO[C@H]1CC[C@H](NC(=O)c2nsc3c(C)cc(C)nc23)CC1` [5,7-Dimethyl-N-((1R,4R)-4-(pentyloxy)cyclohexyl)isothiazolo[4,5-b]pyridine-3-carboxamide], the activation at 0.1 µM is above 20% and the activation at 1 µM is above 20%.

With `CCCCCO[C@H]1CC[C@H](NC(=O)c2noc3c(C)cc(C)nc23)CC1` [5,7-Dimethyl-N-((1R,4R)-4-(pentyloxy)cyclohexyl)isoxazolo[4,5-b]pyridine-3-carboxamide], the activation at 0.1 µM fell in the range of 5 to 20% and the activation at 1 µM was above 20%.

The values above are taken from patent US11168087B2, “Substituted imidazo[1,2-b]pyridazines, substituted imidazo[1,5-b]pyridazines, related compounds, and their use in the treatment of medical disorders” (BIAL—R&D Investments, S.A., priority 2016, dated 2021).
